According to US9718821B2, “Pyridopyrimidinone inhibitors of kinases” (AbbVie Inc., priority 2012, dated 2017):

biological target: T1, GST-tagged-Wee1 kinase (Homo sapiens, UniProt P30291); test: Wee1 time-resolved fluorescence equilibrium binding assay (displacement of Oregon Green-labeled ATP-competitive kinase probe); details: enzyme binding data; GST-tagged-Wee1 kinase 2 nM, fluorescent probe 300 nM, inhibitor 0.003 to 10 micromolar, 1 hour incubation; read-out: Wee-1 binding (Ki nM)
T1 construct: purchased Carnabio 05-177
T1 sequence (P30291 whole entry): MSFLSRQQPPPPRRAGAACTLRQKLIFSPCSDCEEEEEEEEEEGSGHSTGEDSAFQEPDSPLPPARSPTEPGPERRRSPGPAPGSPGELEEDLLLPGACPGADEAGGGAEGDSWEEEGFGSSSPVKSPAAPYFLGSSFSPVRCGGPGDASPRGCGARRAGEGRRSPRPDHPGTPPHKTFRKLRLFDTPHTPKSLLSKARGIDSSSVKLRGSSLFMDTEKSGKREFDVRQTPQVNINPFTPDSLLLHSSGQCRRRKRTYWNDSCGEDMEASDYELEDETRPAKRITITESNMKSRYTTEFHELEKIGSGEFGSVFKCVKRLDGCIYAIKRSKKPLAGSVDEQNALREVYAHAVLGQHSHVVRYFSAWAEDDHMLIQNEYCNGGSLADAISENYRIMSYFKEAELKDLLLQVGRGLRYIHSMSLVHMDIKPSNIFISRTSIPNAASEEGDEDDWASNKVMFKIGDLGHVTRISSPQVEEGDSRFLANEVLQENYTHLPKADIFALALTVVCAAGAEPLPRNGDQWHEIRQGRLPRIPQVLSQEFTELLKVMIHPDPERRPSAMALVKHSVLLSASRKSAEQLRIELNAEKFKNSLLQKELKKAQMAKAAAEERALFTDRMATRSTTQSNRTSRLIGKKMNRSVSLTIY
Protocol: Wee1 kinase was assayed using a time-resolved fluorescence equilibrium binding assay monitoring displacement of a rapidly reversible Oregon Green-labeled ATP-competitive kinase probe (N-(2-(2-(2-(4-(4-(5-chloro-4-(2-(1-hydroxycyclobutyl)thiazol-5-yl)-1H-pyrrolo[2,3-b]pyridin-2-yl)phenyl)piperazin-1-yl)ethoxy)ethoxy)ethyl)-2′,7′-difluoro-3′,6′-dihydroxy-3-oxo-3H-spiro[isobenzofuran-1,9′-xanthene]-5-carboxamide) by competitive Wee1 inhibitors.
Table 1 depicts enzyme binding data (Ki)for exemplary compounds.

Compound	Ki [nM]
O=c1c2cnc(Nc3ccc4c(c3)CNCC4)nc2c(CF)cn1-c1c(Cl)cccc1Cl [Example 109, 6-(2,6-dichlorophenyl)-8-(fluoromethyl)-2-(1,2,3,4-tetrahydroisoquinolin-7-ylamino)pyrido[4,3-d]pyrimidin-5(6H)-one]	0.3
O=c1c2cnc(Nc3ccc4c(c3)CCNC4)nc2c(CF)cn1-c1c(Cl)cccc1Cl [Example 110, 6-(2,6-dichlorophenyl)-8-(fluoromethyl)-2-(1,2,3,4-tetrahydroisoquinolin-6-ylamino)pyrido[4,3-d]pyrimidin-5(6H)-one]	0.4
CN(C)C1CCN(c2ccc(Nc3ncc4c(=O)n(-c5c(Cl)cccc5Cl)cc(CF)c4n3)cc2)CC1 [Example 111, 6-(2,6-dichlorophenyl)-2-({4-[4-(dimethylamino)piperidin-1-yl]phenyl}amino)-8-(fluoromethyl)pyrido[4,3-d]pyrimidin-5(6H)-one]	0.2
CN(C)C1Cc2ccc(Nc3ncc4c(=O)n(-c5c(Cl)cccc5Cl)cc(CF)c4n3)cc2C1 (stereo not drawn) [Example 112, 6-(2,6-dichlorophenyl)-2-{[2-(dimethylamino)-2,3-dihydro-1H-inden-5-yl]amino}-8-(fluoromethyl)pyrido[4,3-d]pyrimidin-5(6H)-one]	0.4
CN1Cc2cc(Nc3ncc4c(=O)n(-c5c(Cl)cccc5Cl)cc(CF)c4n3)ccc2C2(CC2)C1 [Example 113, 6-(2,6-dichlorophenyl)-8-(fluoromethyl)-2-[(2′-methyl-2′,3′-dihydro-1′H-spiro[cyclopropane-1,4′-isoquinolin]-7′-yl)amino]pyrido[4,3-d]pyrimidin-5 (6H)-one]	0.4
Cc1cn(-c2ccccc2O)c(=O)c2cnc(Nc3ccc4c(c3)CNCC4)nc12 [Example 117, 6-(2-hydroxyphenyl)-8-methyl-2-(1,2,3,4-tetrahydroisoquinolin-7-ylamino)pyrido[4,3-d]pyrimidin-5(6H)-one]	2
Cc1cccc(O)c1-n1cc(C)c2nc(Nc3ccc4c(c3)CNCC4)ncc2c1=O [Example 118, 6-(2-hydroxy-6-methylphenyl)-8-methyl-2-(1,2,3,4-tetrahydroisoquinolin-7-ylamino)pyrido[4,3-d]pyrimidin-5(6H)-one]	0.6
Cc1nn(C)c(C)c1-n1cc(C)c2nc(Nc3ccc4c(c3)CNCC4)ncc2c1=O [Example 119, 8-methyl-2-(1,2,3,4-tetrahydroisoquinolin-7-ylamino)-6-(1,3,5-trimethyl-1H-pyrazol-4-yl)pyrido[4,3-d]pyrimidin-5(6H)-one]	1.6
Cc1n[nH]c(C)c1-n1cc(C)c2nc(Nc3ccc4c(c3)CNCC4)ncc2c1=O [Example 123, 6-(3,5-dimethyl-1H-pyrazol-4-yl)-8-methyl-2-(1,2,3,4-tetrahydroisoquinolin-7-ylamino)pyrido[4,3-d]pyrimidin-5(6H)-one]	1.3
Cc1noc(C)c1-n1cc(C)c2nc(Nc3ccc4c(c3)CNCC4)ncc2c1=O [Example 124, 6-(3,5-dimethyl-1,2-oxazol-4-yl)-8-methyl-2-(1,2,3,4-tetrahydroisoquinolin-7-ylamino)pyrido[4,3-d]pyrimidin-5(6H)-one]	1.6
Cc1cccc(C)c1-n1cc(C)c2nc(Nc3ccc4c(c3)CNCC4)ncc2c1=O [Example 126, 6-(2,6-dimethylphenyl)-8-methyl-2-(1,2,3,4-tetrahydroisoquinolin-7-ylamino)pyrido[4,3-d]pyrimidin-5(6H)-one]	0.4
Cc1cccc(Cl)c1-n1cc(C)c2nc(Nc3ccc4c(c3)CNCC4)ncc2c1=O [Example 127, 6-(2-chloro-6-methylphenyl)-8-methyl-2-(1,2,3,4-tetrahydroisoquinolin-7-ylamino)pyrido[4,3-d]pyrimidin-5(6H)-one]	0.3
CC(O)c1cn(-c2c(Cl)cccc2Cl)c(=O)c2cnc(Nc3ccc(N4CCN(C)CC4)cc3)nc12 (stereo not drawn) [Example 128, 6-(2,6-dichlorophenyl)-8-(1-hydroxyethyl)-2-{[4-(4-methylpiperazin-1-yl)phenyl]amino}pyrido[4,3-d]pyrimidin-5(6H)-one]	2
Cc1cn(-c2c(Cl)cccc2Cl)c(=O)c2cnc(Nc3ccc(N4CCN(CCCN(C)C)CC4)cc3)nc12 [Example 131, 6-(2,6-dichlorophenyl)-2-[(4-{4-[3-(dimethylamino)propyl]piperazin-1-yl}phenyl)amino]-8-methylpyrido[4,3-d]pyrimidin-5(6H)-one]	0.2
Cc1cn(-c2c(Cl)cccc2Cl)c(=O)c2nnc(Nc3ccc4c(c3)CNCC4)nc12 [Example 134, 7-(2,6-dichlorophenyl)-5-methyl-3-(1,2,3,4-tetrahydroisoquinolin-7-ylamino)pyrido[4,3-e][1,2,4]triazin-8(7H)-one]	6.5
Cc1cn(-c2c(Cl)cccc2Cl)c(=O)c2nnc(Nc3ccc4c(c3)CN(C)CC43CC3)nc12 [Example 135, 7-(2,6-dichlorophenyl)-5-methyl-3-[(2′-methyl-2′,3′-dihydro-1′H-spiro[cyclopropane-1,4′-isoquinolin]-7′-yl)amino]pyrido[4,3-e][1,2,4]triazin-8(7H)-one]	5.7
Cc1cn(-c2c(O)cccc2Cl)c(=O)c2cnc(Nc3ccc4c(c3)CNC4(C)C)nc12 [Example 136, 6-(2-chloro-6-hydroxyphenyl)-2-[(1,1-dimethyl-2,3-dihydro-1H-isoindol-5-yl)amino]-8-methylpyrido[4,3-d]pyrimidin-5(6H)-one]	0.2
Cc1cn(-c2c(Cl)cccc2Cl)c(=O)c2cnc(Nc3ccc4c(c3)CN(C3CCN(C)CC3)C4)nc12 [Example 137, 6-(2,6-dichlorophenyl)-8-methyl-2-{[2-(1-methylpiperidin-4-yl)-2,3-dihydro-1H-isoindol-5-yl]amino}pyrido[4,3-d]pyrimidin-5(6H)-one]	0.4

Second part, the molecule after the results:

Ki [nM]	Compound
0.8	CNC(=O)CSc1ccc(Nc2ncc3c(=O)n(-c4c(Cl)cccc4Cl)cc(C)c3n2)cc1 [Example 114, 2-[(4-{[6-(2,6-dichlorophenyl)-8-methyl-5-oxo-5,6-dihydropyrido[4,3-d]pyrimidin-2-yl]amino}phenyl)sulfanyl]-N-methylacetamide]
0.2	Cc1cn(-c2c(Cl)cccc2Cl)c(=O)c2cnc(Nc3ccc4c(c3)CN(C)C4(C)C)nc12 [Example 115, 6-(2,6-dichlorophenyl)-8-methyl-2-[(1,1,2-trimethyl-2,3-dihydro-1H-isoindol-5-yl)amino]pyrido[4,3-d]pyrimidin-5(6H)-one]
0.1	Cc1cn(-c2c(Cl)cccc2Cl)c(=O)c2cnc(Nc3ccc(NC4CCN(C)CC4)cc3)nc12 [Example 116, 6-(2,6-dichlorophenyl)-8-methyl-2-({4-[(1-methylpiperidin-4-yl)amino]phenyl}amino)pyrido[4,3-d]pyrimidin-5 (6H)-one]
0.3	CNC(=O)CS(=O)(=O)c1ccc(Nc2ncc3c(=O)n(-c4c(Cl)cccc4Cl)cc(C)c3n2)cc1 [Example 120, 2-[(4-{[6-(2,6-dichlorophenyl)-8-methyl-5-oxo-5,6-dihydropyrido[4,3-d]pyrimidin-2-yl]amino}phenyl)sulfonyl]-N-methylacetamide]
0.1	Cc1cn(-c2c(Cl)cccc2Cl)c(=O)c2cnc(Nc3ccc4c(c3)CNC4(C)C)nc12 [Example 121, 6-(2,6-dichlorophenyl)-2-[(1,1-dimethyl-2,3-dihydro-1H-isoindol-5-yl)amino]-8-methylpyrido[4,3-d]pyrimidin-5(6H)-one]
0.4	Cc1cn(-c2c(Cl)cccc2Cl)c(=O)c2cnc(Nc3ccc(OC4CCN(C)CC4)cc3)nc12 [Example 122, 6-(2,6-dichlorophenyl)-8-methyl-2-({4-[(1-methylpiperidin-4-yl)oxy]phenyl}amino)pyrido[4,3-d]pyrimidin-5(6H)-one]
0.3	Cc1cn(-c2c(Cl)cccc2Cl)c(=O)c2cnc(Nc3ccc(NC4CCN(C)C4)cc3)nc12 (stereo not drawn) [Example 125, 6-(2,6-dichlorophenyl)-8-methyl-2-({4[(1-methylpyrrolidin-3-yl)amino]phenyl}amino)pyrido[4,3-d]pyrimidin-5(6H)-one]
0.2	COC(=O)c1cc(Nc2ncc3c(=O)n(-c4c(Cl)cccc4Cl)cc(C)c3n2)ccc1N1CCN(C)CC1 [Example 129, methyl 5-{[6-(2,6-dichlorophenyl)-8-methyl-5-oxo-5,6-dihydropyrido[4,3-d]pyrimidin-2-yl]amino}-2-(4-methylpiperazin-1-yl)benzoate]
0.3	Cc1cn(-c2c(Cl)cccc2Cl)c(=O)c2cnc(Nc3ccc(NCCN(C)C)cc3)nc12 [Example 130, 6-(2,6-dichlorophenyl)-2-[(4-{[2-(dimethylamino)ethyl]amino}phenyl)amino]-8-methylpyrido[4,3-d]pyrimidin-5(6H)-one]
0.4	Cc1cn(-c2c(Cl)cccc2Cl)c(=O)c2cnc(Nc3ccc(N[C@H]4CC[C@H](N(C)C)CC4)cc3)nc12 [Example 132, 6-(2,6-dichlorophenyl)-2-[(4-{[trans-4-(dimethylamino)cyclohexyl]amino}phenyl)amino]-8-methylpyrido[4,3-d]pyrimidin-5(6H)-one]
0.5	Cc1cn(-c2c(Cl)cccc2Cl)c(=O)c2cnc(Nc3ccc(N[C@H]4CC[C@@H](N(C)C)CC4)cc3)nc12 [Example 133, 6-(2,6-dichlorophenyl)-2-[(4-{[cis-4-(dimethylamino)cyclohexyl]amino}phenyl)amino]-8-methylpyrido[4,3-d]pyrimidin-5(6H)-one]
0.2	Cc1cn(-c2c(Cl)cccc2Cl)c(=O)c2cnc(Nc3ccc(N4CCN(CCN(C)C)CC4)cc3)nc12 [Example 138, 6-(2,6-dichlorophenyl)-2-[(4-{4-[2-(dimethylamino)ethyl]piperazin-1-yl}phenyl)amino]-8-methylpyrido[4,3-d]pyrimidin-5(6H)-one]
